Earlier results, collected in publication PMC6270026, “Antibacterial and Herbicidal Activity of Ring-Substituted 2-Hydroxynaphthalene-1-carboxanilides” (Molecules, 2013).
Converted amounts (≈) assume the structure as drawn.

Tests used:
[1] = test system: methicillin-resistant Staphylococcus aureus SA 3202; set-up: method as in PMID 23884130; conditions: previous study, all the MRSA strains; cited from earlier work
[2] = test system: methicillin-resistant Staphylococcus aureus SA 630; set-up: method as in PMID 23884130; conditions: previous study, all the MRSA strains; cited from earlier work
[3] = test system: methicillin-resistant Staphylococcus aureus (MRSA) 63718; set-up: method as in PMID 23884130; conditions: previous study, all the MRSA strains; cited from earlier work
[4] = test system: Staphylococcus aureus ATCC 29213; set-up: method as in PMID 23884130; conditions: previous study; cited from earlier work
[5] = set-up: method as in PMID 23884130; conditions: 3-hydroxynaphthalene-2-carboxanilide series; cited from earlier work
[6] = test system: human monocytic leukemia THP-1 cells; conditions: assessed in this line formerly; cited from earlier work

SMILES	MIC against MRSA strains (SA 3202) [1] [µM]	MIC against MRSA strains (SA 630) [2] [µM]	MIC against MRSA strains (MRSA 63718) [3] [µM]	MIC against S. aureus [4] [µM]	log k [5]	LD50 [6] [µmol/L]
COc1ccccc1NC(=O)c1cc2ccccc2cc1O [3-hydroxy-N-(2-methoxyphenyl)naphthalene-2-carboxamide]	55.0 (≈ 16.1 µg/mL)	55.0 (≈ 16.1 µg/mL)	55.0 (≈ 16.1 µg/mL)	55.0 (≈ 16.1 µg/mL)	0.69	
CC[C@@]1(O)C(=O)OCc2c1cc1n(c2=O)Cc2cc3ccccc3nc2-1 [camptothecin]						0.16 ± 0.07
